According to patent EP0326134A1, “4-Amino-2,3-disubstituted-6,7-dihydro-5H-1-pyridine derivatives, process for their preparation and medicaments containing them” (NAUCHNO-ISSLEDOVATELSKY INSTITUT TEKHNOLOGII I BEZOPASNOSTI …, priority 1988, dated 1989):
Like-named read-outs stand apart in the source and are kept apart here.

Key:
Samenleiter der Ratte = test: Contractile activity of smooth muscle: rat vas deferens; conditions: Rattus norvegicus, Konzentration 1.10^-4 Mol, n = 9
Excerpt: (§1) In Versuchen an glattmpskulären Organen (Uterus, Samenleiter der Ratte und Krummdarm des Meerschweinchens) wurden die Wirkung der erfindungsgemäßen Verbindungen auf die kontraktile Aktivität der glatten Muskeln und ihre Reaktionen auf den Einfluß von Acetylcholin, Serotonin, Adrenalin und KCI als Agonisten untersucht. Mit Hilfe eines Schreibers wurden die Amplitude und die Dauer der Kontraktion der glatten Muskeln unter Verwendung eines Geräts vom Typ Mechanstron-untersucht.

[1] = target: T1, Acetylcholinesterase menschlicher Erythrozyten (Homo sapiens, UniProt P22303); test: Acetylcholinesterase inhibition, spectrophotometric; assay type: biochemical; conditions: Acetylcholinesteraseinhibierung bei menschlichen Erythrozyten IK, (Mol), human erythrocyte enzyme
T1 construct: Acetylcholin-esteraseinhi-bierung bei menschlichen Erythrozyten; from tissue; host or cells: human erythrocytes
T1 sequence (P22303 other isoform, or with tags, fused parts or gaps): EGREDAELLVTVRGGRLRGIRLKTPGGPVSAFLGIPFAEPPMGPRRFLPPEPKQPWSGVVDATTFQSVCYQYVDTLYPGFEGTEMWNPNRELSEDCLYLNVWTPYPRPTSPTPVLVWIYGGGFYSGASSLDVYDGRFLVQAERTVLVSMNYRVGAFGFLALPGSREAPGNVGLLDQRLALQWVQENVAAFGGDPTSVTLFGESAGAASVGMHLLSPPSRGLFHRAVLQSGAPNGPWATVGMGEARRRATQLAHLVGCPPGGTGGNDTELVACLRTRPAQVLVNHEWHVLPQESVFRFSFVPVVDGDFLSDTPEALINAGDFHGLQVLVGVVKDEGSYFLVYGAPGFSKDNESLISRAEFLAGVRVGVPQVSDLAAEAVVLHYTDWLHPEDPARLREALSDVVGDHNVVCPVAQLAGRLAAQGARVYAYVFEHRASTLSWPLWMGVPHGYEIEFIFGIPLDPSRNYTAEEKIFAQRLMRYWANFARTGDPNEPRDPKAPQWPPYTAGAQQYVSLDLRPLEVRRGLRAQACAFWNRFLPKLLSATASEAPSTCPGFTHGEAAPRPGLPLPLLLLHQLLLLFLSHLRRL
Excerpt: Untersucht wurden die Wirkmechanismen der erfindungsgemäßen Verbindungen: • 1. Die Wirkung auf Acetylcholinesterase menschlicher Erythrozyten auf spektrofotometrischem Wege. • 2.

[2] = Acute toxicity, single intraperitoneal injection, probit analysis (LD50); assay type: in vivo, Mäusen; conditions: mice, i.p.
Excerpt: Ihre akute Toxizität wurde an Mäusen (einmalige intraperitoneale Injektion) nach der Methode der Probit-Analyse nach Zichtfield, Wilcoxon, t949 untersucht. In Tabelle 2 sind die Parameter der akuten Toxizität (LDso) angegeben, die eine mäßige Toxizität der erfindungsgemäßen Verbindungen belegen.

[3] = system: Na -Durchlässigkeit der Membrane des Ranvier-Schnürringes; test: Na+ permeability of the node of Ranvier membrane, voltage clamp; set-up: species or system Frosches; conditions: node of Ranvier, frog sciatic nerve fibres, voltage clamp; concentration giving 50 % block of ion permeability; read-out: Blockierung der Na^+-Durchlässigkeit der Membrane Ic50 (Mol)
Excerpt: (§2) Untersucht wurden die Wirkmechanismen der erfindungsgemäßen Verbindungen: • 1. Die Wirkung auf Acetylcholinesterase menschlicher Erythrozyten auf spektrofotometrischem Wege. • 2. Die Wirkung auf die K - und Na -Durchlässigkeit der Membrane des Ranvier-Schnürringes (s. Fox T.M. et al. "Modification of ionic membrane currrents of Ranvier nodes by UV-radiation under voltage clamp conditions", Experientia, 27, 1289-1290 /1971/ und Arhom P. et al. "Local anesthetics: effects on permeability properties of nodal membrane in myelynated nerve fibres from xenopus". Acta physiol. Scand. 91, 11-21 /1974/) der Nervenfasern des Hüftnervs des Frosches unter Anwendung der Methode der Messung der Membranspannung (Voltage-clampmethode) (s. Derksen H.E. "Axon membrane voltage fluctuations", Acta Physiol., Pharmacol Neer, 13, 373-466 /1965/).
(§3) Alle erfindungsgemäßen Verbindungen sind Blocker für die K^+-Durchlässigkeit der Membrane analog dem Amyridin. Die Salze der bicyclischen Basen blockieren jedoch stärker die Na -Durchlässigkeit der Membrane, was sich mit ihren sedativen und analgetischen Eigenschaften in Verbindung bringen läßt.

[4] = Side effects and CNS/behaviour: tremor (TD50), sedative and m-cholinomimetic effects; assay type: in vivo; conditions: for Verhältnis TD50 zu ED50: ED50 = dose blocking the effect of Skopolamin in 50 % of the animals (passive avoidance, mice); for TD50 (Tremor): toxic dose causing tremor in 50 % of the animals
Excerpt: Von Interesse ist der Einfluß der erfindungsgemäßen Verbindungen auf das ZNS und das Verhalten der Tiere.

Uterus der Ratte = test: Contractile activity of smooth muscle: rat uterus; conditions: n = 9; for activity at 100 µM: Rattus norvegicus, Konzentration 1.10^-4 Mol
Excerpt: as §1

[5] = system: durch Skopolamin hervorgerufene Amnesie; test: Dark avoidance assay (passive avoidance), scopolamine-induced amnesia; assay type: in vivo, Mäusen; conditions: mice, compound s.c. 5 min before learning, Skopolamin i.p. 30 min before
Description: Die Mäuse wurden dabei in den hellen Abschnitt der Kammer gegeben, wonach die Latenzzeit für den Übertritt in die dunkle Kammer, in der die Tiere einem Stromschlag von 0,5 mA ausgesetzt waren, registriert wurde. Danach erhöhte sich die Latenzzeit für den Übertritt in den dunklen Abschnitt und verringerte sich die Aufenthaltsdauer. 30 Minuten vor dem Versuch wurden den Mäusen i.p. […] Gedächtnisstörungen hervorrufendes Skopolamin als Cholinblocker injiziert. Die erfindungsgemäßen Verbindungen wurden s.c. 5 Minuten vor dem Lernvorgang injiziert. Das Skopolamin verkürzt die Latenzzeit für den Übertritt in die dunkle Kammer, die erfindungsgemäßen Verbindungen stellen jedoch die Latenzzeitwerte wie bei der Kontrollgruppe wieder her oder bedingen ein geringfügiges Überschreiten dieser Werte (siehe Tabelle 2). Gleichzeitig wird die Aufenthaltsdauer der Tiere im dunklen Abschnitt der Kammer auf 36 bis 45 Hundertstel des Ausgangswerts verringert.

[6] = system: Nerven-Muskel-Präparat von Mäusen (n.peroneus-m.extensor digitorum longus); test: Neuromuscular transmission in isolated nerve-muscle preparation (EPP, minEPP); conditions: for Stimulierung der Nerven-Muskelübertragung, in % der Amplitude: EPP: EPP = Endplattenpotential
Excerpt: Der Einfluß der Stoffe auf die Nerven-Muskei-Übertragung wurde am isolierten Nerven-Muskel-Präparat von Mäusen (n.peroneus-m.extensor digitorum longus) (s. Bhattacharyya B. et al. "Neuromuscular blocking action of two hemicholinium-3 analogs" Europ. J. Pharmac. 146, 155-165 /1988/) untersucht, das von Lilly-Lösung perfundiert wurde, durch die man ein Gemisch von 02 und C02 leitete. […] Das Endplattenpotential (EPP) und das Endplattenminiaturpotential (minEPP) wurden mit Hilfe eines Magnetografen aufgezeichnet und danach mit dem Computer ausgewertet. Ermittelt wurden die Frequenz (f), die Amplitude (A) und die Dauer (t) der minEPP und der EPP (s. Tabelle 2).

[7] = system: K -Durchlässigkeit der Membrane des Ranvier-Schnürringes; test: K+ permeability of the node of Ranvier membrane, voltage clamp; set-up: species or system Frosches; conditions: node of Ranvier, frog sciatic nerve fibres, voltage clamp; concentration giving 50 % block of ion permeability; read-out: Blockierung der K^+-Durchlässigkeit der Membrane Ic50 (Mol)
Excerpt: as §2, §3

Wirkung von Hexenal = test: Influence on the effect of Hexenal; assay type: in vivo, Mäusen; conditions: mice
[8] = system: isolierten Präparaten des rechten Vorhofs von Kaninchen; test: Antiarrhythmic effect on isolated right atrium preparations (microelectrodes: AP duration, refractory period R, e/R); conditions: isolated right atrium of rabbit, microelectrodes
Excerpt: (§4) Die antiarrhythmische Wirkung der erfindungsgemäßen Verbindungen wurde in zwei Versuchsserien untersucht, und zwar an isolierten Präparaten des rechten Vorhofs von Kaninchen und mit Hilfe des Calciumchlorid-Arrhythmie-Modells an Ratten. In den Versuchen an den isolierten Präparaten des rechten Vorhofs wurden mit Hilfe von Mikroelektroden die Dauer des AP sowie der Refraktärzeit (R) und die maximale Hemmung (e) und der Parameter (e/R) untersucht, durch den die Anfälligkeit des Myokards gegenüber der Entstehung von Arrhythmien gekennzeichnet wird. In den Versuchen an Ratten wurden diesen Calciumchlorid in einer Dosierung von 250 mg/kg injiziert. Registriert wurden das Vorliegen von Kammerflimmern und die Lebensdauer der Tiere. Sämtliche erfindungsgemäßen Verbindungen üben eine mäßige antiarrhythmische Wirkung aus. Sie steigern die Refraktärzeit des Muskels und des AP um 35 bis 145 % und verringern gleichzeitig die Anfälligkeit des Myokards, ausgedrückt durch den Parameter e/R um 10 bis 80 % (s. Tabelle 4). In bezug auf diese Wirkung waren die Salze der bicyclischen Basen wirksamer als Amyridin. Bezüglich des Vermögens, die Tiere vor Kammerflimmern und vor dem Tod nach Verabreichung von 250 mg/kg Calciumchlorid zu schützen, waren diese Verbindungen ebenfalls am stärksten wirksam. Bei Verwendung des Calciumchlorid-Arrhythmie-Modells waren viele erfindungsgemäßen Verbindungen stärker wirksam als das klassische Antiarrhythmikum Chinidin (s. M.D. Ma s kovskij, Lekarstvennye sredstva, Bd. 1, S. 401, Moskau, Medicina, 1984).

Zahl der Krämpfe = test: Writhing test (intraperitoneal acetic acid); assay type: in vivo, Mäusen; conditions: male mice
Excerpt: Die analgetische Wirkung der erfindungsgemäßen Verbindungen wurde an männlichen Mäusen anhand des "Krampf"-Tests (Writhing-Tests) unter intraperitonealer Injizierung von Essigsäure und des Hot-plate-Tests untersucht. Im ersten Falle wurde die analgetische Wirkung der Verbindungen anhand der prozentualen Verringerung der Zahl der Krämpfe ermittelt. Beim zweiten Test wurde die Schwelle der Schmerzempfindlichkeit (Ablecken der Pfoten) bestimmt. Die stärkste analgetische Wirkung der erfindungsgemäßen Verbindungen zeigte sich beim "Krampf"-Test. Dabei übertrafen die Salze der bicyclischen Basen Amyridin, aber nicht alle erfindungsgemäßen Verbindungen waren schwächer als Morphin (s. Tabelle 4).

[9] = system: Calciumchlorid-Arrhythmie-Modells; test: Calcium chloride arrhythmia model (250 mg/kg): ventricular fibrillation, survival; assay type: in vivo, Ratten; conditions: rats, calcium chloride 250 mg/kg
Excerpt: as §4

Orientierungsaktivität = test: Influence on orientation activity; assay type: in vivo, Mäusen; conditions: mice
Excerpt: Von Interesse ist der Einfluß der erfindungsgemäßen Verbindungen auf das ZNS und das Verhalten der Tiere. Alle Verbindungen zeigen eine Kombination von stimulierenden und sedativen Eigenschaften und bei höheren Dosen auch eine m-cholinomimetische Wirkung, wobei Tremor, Speichelfluß und Diarrhoe ausgelöst werden.

SMILES | activity at 100 µM (Samenleiter der Ratte; Samenleiter der Ratte, read-out: Adrenalin 1.10^-6: Amplitude, % bezogen auf d.Kontrolle) | Ki [1] | LD50 [2] | IC50 [3] | Verhältnis TD50 zu ED50 [4] | TD50 (Tremor) [4] | activity at 100 µM (Uterus der Ratte; Uterus der Ratte, read-out: Serotonin 1.10^-6 (Mol): Amplitude, % bezogen auf die Kontrolle) | Einfluß auf das Gedächtnis: Zahl der Tiere in %, bei denen die Skopolaminwirkung aufgehoben wurde [5] | Stimulierung der Nerven-Muskelübertragung, in % der Amplitude: EPP [6] | Stimulierung der Nerven-Muskelübertragung, in % der Amplitude: minEPP [6] | IC50 [7] | activity at 100 µM (Samenleiter der Ratte; read-out: Adrenalin 1.10^-6: Amplitude, % bezogen auf d.Kontrolle, Samenleiter der Ratte) | Änderung der Dauer der Seitenlage, in %: Hexenal 60 mg/kg (Wirkung von Hexenal) | Antiarrhythmische Wirkung: Verlängerung d. Refraktärzeit (R), in % [8] | Analgetische Wirkung: Abnahme d. Zahl der "Krämpfe" bei Mäusen, in % (Zahl der Krämpfe) | activity at 100 µM (Uterus der Ratte; read-out: Serotonin 1.10^-6 (Mol): Amplitude, % bezogen auf die Kontrolle, Uterus der Ratte) | Antiarrhythmische Wirkung: Verlängerung d. Lebensdauer von Ratten an Hand des CaCl2-Arrhythmie-Modells, in % [9] | Änderung der Orientierungsaktivität, in % (Orientierungsaktivität) | Acetylcholin 1.10^-6 (Mol): Dauer, Min. (Uterus der Ratte; Uterus der Ratte (as head prints), Konzentration 1.10^-5 Mol) | Serotonin 1.10^-6 (Mol): Dauer, Min. (Uterus der Ratte; Uterus der Ratte, Konzentration 1.10^-5 Mol)
Cc1nc2c(c(N)c1-c1ccccc1)CCC2 [Verbindung 33] | 128% | 48 µM | 25 mg/kg | 5500 µM | 2,4 | 15 mg/kg | 140% | 55% | 20% | 42% | 6500 µM | – | – | – | – | – | – | – | – | –
CCc1nc2c(c(N)c1C)CCC2 [Verbindung 30] | – | 5.1 µM | 40 mg/kg | 350 µM | 11 | 22 mg/kg | – | 75% | 24% | 45% | 280 µM | – | – | – | – | – | – | – | – | –
CCc1nc2c(c(N)c1C)CCC2 [Verbindung 28] | – | 6.1 µM | 40 mg/kg | 150 µM | 11 | 20 mg/kg | – | 80% | 22% | 48% | 120 µM | – | – | – | – | – | – | – | – | –
Nc1c2c(nc3c1CCC3)CCC2 [Verbindung 37, 8-Amino-1,2,3,5,6,7-hexahydro-1-cyclopenta[b]pyrindinperchlorat] | – | 0.15 µM | 38 mg/kg | 4200 µM | 8,2 | 18 mg/kg | – | 68% | 30% | 66% | 450 µM | – | – | – | – | – | – | – | – | –
Cc1nc2c(c(N)c1C)CCC2 [Verbindung 10] | – | 0.123 µM | 15 mg/kg | – | 7,5 | 6 mg/kg | – | 80% | 38% | 79% | – | 160% | 0% | 120% | 60% | 160% | 180% | 0% | – | –
Nc1c2c(nc3c1CCC3)CCCCC2 [Verbindung 39] | – | 0.56 µM | 50 mg/kg | 5000 µM | 7,2 | 18 mg/kg | – | 72% | 25% | 60% | 480 µM | – | – | – | – | – | – | – | 22±0.6 Min. | 28±0.5 Min.
CCc1nc2c(c(N)c1C)CCC2 [Verbindung 29] | – | 6 µM | 35 mg/kg | 300 µM | 12 | 22 mg/kg | – | 70% | 18% | 40% | 200 µM | – | – | – | – | – | – | – | – | –
